EP4603105A1, “PHARMACEUTICAL COMPOSITION CONTAINING CYCLIC COMPOUND HAVING SELECTIVE KRAS INHIBITORY EFFECT AGAINST HRAS AND NRAS” (CHUGAI SEIYAKU KABUSHIKI KAISHA, priority 2022, dated 2024)
*1 amine or outer side, *2 acyl side, *3 side chain or, on linkers, in order; H or OH if unused. Where a SMILES comes first, the peptide text is derived from it. Bridges are numbered along the chain shown (N, C = ends). [ ]: non-standard residue; d: D form. The star is where a group is joined. hPhe(3-Cl-4-CF3) = N[C@@H](CCc1ccc(C(F)(F)F)c(Cl)c1)C(=O)O; X43 = COCCCN([C@@H](Cc1ccc(C(F)(F)F)cc1)C(=O)[*:2])[*:1]; NMeGly(cPent) = CN[C@H](C(=O)O)C1CCCC1; NMeD = CN[C@@H](CC(=O)O)C(=O)O; NMeL = CN[C@@H](CC(C)C)C(=O)O; Morpholide = C1CN(*)CCO1; NMeA = CN[C@@H](C)C(=O)O; Ac5c = NC1(C(=O)O)CCCC1; Aze = O=C(O)[C@@H]1CCN1; Sar = CNCC(=O)O

Assays:
[1] = target: GDP-bound NRAS wild-type protein (Homo sapiens, UniProt P01111); test: Binding to NRAS by surface plasmon resonance (SPR), KD and KD ratio to KRAS
Sequence of GDP-bound NRAS wild-type protein (P01111 whole entry): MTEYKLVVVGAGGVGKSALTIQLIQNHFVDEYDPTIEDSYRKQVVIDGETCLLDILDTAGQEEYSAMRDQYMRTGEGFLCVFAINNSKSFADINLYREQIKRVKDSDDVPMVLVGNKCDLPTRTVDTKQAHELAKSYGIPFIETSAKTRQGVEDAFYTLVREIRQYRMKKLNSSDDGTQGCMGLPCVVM
Summary of the method: (§1)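 Captured GDP-RAS (~100–300 RU) was exposed to increasing compound concentrations, 75 s per step, in running buffer with 10 µM GDP, 10 mM MgCl2 and 4% DMSO at pH 7.4.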

HRAS wild-type protein = HRAS wild-type protein (Homo sapiens, UniProt P01112); test: Binding to HRAS by surface plasmon resonance (SPR), KD and KD ratio to KRAS
Sequence of HRAS wild-type protein (P01112 whole entry): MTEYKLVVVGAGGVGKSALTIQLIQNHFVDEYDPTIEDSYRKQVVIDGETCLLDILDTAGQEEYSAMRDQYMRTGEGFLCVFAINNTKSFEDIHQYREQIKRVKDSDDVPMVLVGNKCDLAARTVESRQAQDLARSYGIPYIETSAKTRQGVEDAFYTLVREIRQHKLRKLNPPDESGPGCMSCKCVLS
Summary of the method: as §1

[2] = tested on: human lung cancer strain NCI-H441; type: cell-based
Summary of the method: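 Step one: dispense the test compound in serial DMSO dilutions. Step three: add the reagent and measure […].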

[3] = ratio of KD for GDP-bound NRAS wild-type protein to KD for KRAS
[4] = ratio of KD for HRAS wild-type protein to KD for KRAS

IC50 [2] [nM]	Compound	NRAS /KRAS [1, 3]	HRAS /KRAS (HRAS wild-type protein; [4])	NRAS /KRAS ([1]; ratio of the KD value with respect to GDP-bound NRAS wild-type protein to the KD value with respect to KRAS)	HRAS /KRAS (HRAS wild-type protein; ratio of the KD value with respect to HRAS wild-type protein to the KD value with respect to KRAS)
5.7	CCO[C@@H]1C[C@H]2C(=O)NC3(CC(C)(C)C3)C(=O)N(C)[C@@H](C(CC)CC)C(=O)N(C)[C@H](C(=O)N3CCCC3)CC(=O)N(C)[C@H]3CCC/C=C/c4ccc(cc4)C[C@@H](C(=O)N(C)CC(=O)N[C@@H](CCc4cc(F)c(C(F)(F)F)c(F)c4)C(=O)N2C1)N1CC/C=C\C[C@@H](C1=O)N(C)C(=O)CN(C)C(=O)[C@H]([C@@H](C)CC)NC3=O [PP2576]	A (a compound having 10 or more and less than 20 is denoted as A)	A (a compound having 10 or more and less than 20 is denoted as A)	–	–
1.6	CC[C@H](C)[C@@H]1NC(=O)[C@H](CC(C)C)N(C)C(=O)C[C@@H](C(=O)N2CCOCC2)N(C)C(=O)[C@H](C2CCCC2)N(C)C(=O)C2(CCCC2)NC(=O)[C@@H]2CCCN2C(=O)[C@H](CCc2ccc(C(F)(F)F)c(Cl)c2)NC(=O)CN(C)C(=O)[C@H](Cc2ccc(C(F)(F)F)cc2)N(CCCOC)C(=O)[C@@H]2CCN2C(=O)[C@H](C)N(C)C1=O [PP0119] ([NMeL]I[NMeA][Aze][X43][Sar][hPhe(3-Cl-4-CF3)]P[Ac5c][NMeGly(cPent)][NMeD]-Morpholide; lactam N-11)	C (A compound having a KD ratio of 0.1 or more and less than 3 is denoted as C)	C (A compound having a KD ratio of 0.1 or more and less than 3 is denoted as C)	–	–
378	CCO[C@@H]1C[C@H]2C(=O)NC3(CCC3)C(=O)N(C)[C@@H](C3CCCC3)C(=O)N(CC)[C@H](C(=O)N3CCOCC3)CC(=O)N(C)[C@@H](COC)C(=O)N[C@@H]([C@@H](C)CC)C(=O)N(C)CC(=O)N(C)[C@H]3CCCCCN(C3=O)[C@@H](Cc3ccc(C(F)(F)F)cc3)C(=O)N(C)CC(=O)N[C@@H](CCc3cc(F)c(C(F)(F)F)c(F)c3)C(=O)N2C1 [PP0946]	A (a compound having 10 or more and less than 20 is denoted as A)	B (a compound having 3 or more and less than 10 is denoted as B)	–	–
154	CCO[C@@H]1C[C@H]2C(=O)NC3(CCC3)C(=O)N(C)[C@@H](C3CCCC3)C(=O)N(C)[C@H](C(=O)N(C)C)CC(=O)N(C)[C@@H](Cc3ccc(C)cc3)C(=O)N[C@@H]([C@@H](C)CC)C(=O)N(C)CC(=O)N(C)[C@H]3CCCCCN(C3=O)[C@@H](Cc3ccc(C(F)(F)F)cc3)C(=O)N(C)CC(=O)N[C@@H](CCc3cc(F)c(C(F)(F)F)c(F)c3)C(=O)N2C1 [PP0943]	B (a compound having 3 or more and less than 10 is denoted as B)	B (a compound having 3 or more and less than 10 is denoted as B)	–	–
4.1	CCO[C@@H]1C[C@H]2C(=O)NC3(CC(C)(C)C3)C(=O)N(C)[C@@H](C3CCCC3)C(=O)N(C)[C@H](C(=O)N(C)CC)CC(=O)N(C)[C@H]3CCC/C=C/c4ccc(cc4)C[C@@H](C(=O)N(C)CC(=O)N[C@@H](CCc4ccc(Cl)c(Cl)c4)C(=O)N2C1)N1CC/C=C\C[C@@H](C1=O)N(C)C(=O)CN(C)C(=O)[C@H]([C@@H](C)CC)NC3=O [PP2577]	A (a compound having 10 or more and less than 20 is denoted as A)	A (a compound having 10 or more and less than 20 is denoted as A)	–	–
3.8	CCC[C@H]1C(=O)N[C@@H]([C@@H](C)CC)C(=O)N2CCC[C@H]2C(=O)N(C)[C@H]2C/C=C\CCN(C2=O)[C@@H](Cc2ccc(C)cc2)C(=O)N(C)CC(=O)N[C@@H](CCc2ccc(C(F)(F)F)c(OC)c2)C(=O)N2C[C@H](OCC)C[C@H]2C(=O)N(C)C2(CCC2)C(=O)N(C)[C@@H](C2CCCC2)C(=O)N(C)[C@H](C(=O)N(C)C)CC(=O)N1C [PP2332]	–	–	A (a compound having 10 or more and less than 20 is denoted as A)	B (a compound having 3 or more and less than 10 is denoted as B)
797	CCO[C@@H]1C[C@H]2C(=O)NC3(CCC3)C(=O)N(C)[C@@H](C3CCCC3)C(=O)N(CCC3CCCC3)[C@H](C(=O)N3CCOCC3)CC(=O)N(C)[C@@H](CC)C(=O)N[C@@H]([C@@H](C)CC)C(=O)N(C)CC(=O)N(C)[C@H]3C/C=C\CCN(C3=O)[C@@H](Cc3ccc(C(F)(F)F)cc3)C(=O)N(C)CC(=O)N[C@@H](CCc3cc(F)c(C(F)(F)F)c(F)c3)C(=O)N2C1 [PP0981]	AA (a compound having 20 or more is denoted as AA)	A (a compound having 10 or more and less than 20 is denoted as A)	–	–
